Values of other authors, collected in patent publication US8946148B2 (Ambrx, Inc., priority 2007, dated 2015).

Test system: patients with NIDDM and impaired glucose tolerance

## Cc1c(C)c2c(c(C)c1O)CCC(C)(COc1ccc(CC3SC(=O)NC3=O)cc1)O2 (stereo not shown) [Troglitazone]
  effect on insulin resistance: reverse insulin resistance
